Tests used:
Human COX I = Human COX I (Homo sapiens, UniProt P23219); assay: biochemical; settings: recombinant enzyme, CHAPS-solubilized insect cell membranes; arachidonic acid 10 μM; pre-incubation 10-20 minutes; pH 8.0; read-out: Human COX I ID50
Method: (§1) Recombinant baculoviruses were isolated by transfecting 4 μg of baculovirus transfer vector DNA into SF9 insect cells ([…]) along with 200 ng of linearized baculovirus plasmid DNA by the calcium phosphate method. See M. D. Summers and G. E. Smith, A Manual of Methods for Baculovirus Vectors and Insect Cell Culture Procedures, Texas Agric. Exp. Station Bull. […] Recombinant viruses were purified by three rounds of plaque purification and high titer (10E7-10E8 pfu/ml) stocks of virus were prepared. For large scale production, SF9 insect cells were infected in 10 liter fermentors (0.5×10^6 /ml) with the recombinant baculovirus stock such that the multiplicity of infection was 0.1. After 72 hours the cells were centrifuged and the cell pellet homogenized in Tris/Sucrose (50 mM: 25%, pH 8.0) containing 1% 3-[(3-cholamidopropyl)dimethylammonio]-1-propanesulfonate (CHAPS). The homogenate was centrifuged at 10,000×G for 30 minutes, and the resultant supernatant was stored at -80° C. before being assayed for COX activity.
COX activity was assayed as PGE2 formed/μg protein/time using an ELISA to detect the prostaglandin released. CHAPS-solubilized insect cell membranes containing the appropriate COX enzyme were incubated in a potassium phosphate buffer (50 mM, pH 8.0) containing epinephrine, phenol, and heme with the addition of arachidonic acid (10 μM). Compounds were pre-incubated with the enzyme for 10-20 minutes prior to the addition of arachidonic acid. […] The PGE2 formed was measured by standard ELISA technology (Cayman Chemical).

Human COX II = target: T1, Human COX II (Homo sapiens, UniProt P35354); assay: COX II activity in vitro (PGE2 formed, ELISA); type: biochemical; settings: recombinant enzyme, CHAPS-solubilized insect cell membranes; arachidonic acid 10 μM; pre-incubation 10-20 minutes; pH 8.0; read-out: Human COX II ID50
T1 construct: A 2.0 kb fragment containing the coding region of either human or murine COX-I or human or murine COX-II was cloned; made in house; host or cells: SF9 insect cells infected with recombinant baculovirus (transfer vector pVL1393); CHAPS-solubilized preparation
T1 sequence (P35354 18-604): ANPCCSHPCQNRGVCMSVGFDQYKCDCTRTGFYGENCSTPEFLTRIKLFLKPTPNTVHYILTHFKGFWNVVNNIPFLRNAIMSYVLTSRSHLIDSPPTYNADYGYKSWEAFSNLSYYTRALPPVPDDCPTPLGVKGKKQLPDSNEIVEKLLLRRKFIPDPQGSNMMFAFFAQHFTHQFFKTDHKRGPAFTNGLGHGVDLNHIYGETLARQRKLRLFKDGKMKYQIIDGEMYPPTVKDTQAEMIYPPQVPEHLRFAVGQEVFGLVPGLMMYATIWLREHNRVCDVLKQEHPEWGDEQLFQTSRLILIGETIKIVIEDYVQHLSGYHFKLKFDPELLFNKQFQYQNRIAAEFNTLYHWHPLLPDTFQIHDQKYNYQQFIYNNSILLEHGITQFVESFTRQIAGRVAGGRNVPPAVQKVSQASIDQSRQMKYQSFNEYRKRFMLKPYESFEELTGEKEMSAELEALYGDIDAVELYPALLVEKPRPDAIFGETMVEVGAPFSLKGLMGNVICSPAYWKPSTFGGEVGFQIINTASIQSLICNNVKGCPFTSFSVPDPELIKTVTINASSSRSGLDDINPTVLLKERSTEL
Method: as §1
COX activity was assayed as PGE2 formed/μg protein/time using an ELISA to detect the prostaglandin released. […] The PGE2 formed was measured by standard ELISA technology (Cayman Chemical).

Sequence of Human COX I (P23219 24-599): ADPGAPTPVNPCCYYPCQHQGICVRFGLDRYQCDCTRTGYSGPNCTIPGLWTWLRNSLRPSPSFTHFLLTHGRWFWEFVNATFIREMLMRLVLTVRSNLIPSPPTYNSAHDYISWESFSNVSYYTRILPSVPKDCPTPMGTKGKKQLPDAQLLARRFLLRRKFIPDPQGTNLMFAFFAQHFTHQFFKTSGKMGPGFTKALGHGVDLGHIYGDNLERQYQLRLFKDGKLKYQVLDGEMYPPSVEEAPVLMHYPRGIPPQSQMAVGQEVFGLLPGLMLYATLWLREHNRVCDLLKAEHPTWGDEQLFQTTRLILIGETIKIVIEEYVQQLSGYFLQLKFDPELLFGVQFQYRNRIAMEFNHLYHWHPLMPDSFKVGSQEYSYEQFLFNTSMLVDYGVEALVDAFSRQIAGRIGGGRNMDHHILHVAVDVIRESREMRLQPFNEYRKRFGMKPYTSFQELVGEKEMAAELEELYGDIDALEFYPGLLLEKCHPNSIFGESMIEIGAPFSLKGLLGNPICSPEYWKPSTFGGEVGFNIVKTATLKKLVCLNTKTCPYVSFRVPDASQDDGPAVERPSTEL

**Q.** How did the IC50 (Human COX I) turn out when `Cc1ccc(-c2cc(-c3ccc(C)cc3)n(-c3ccc(S(N)(=O)=O)cc3)n2)cc1` [Example 2a, 4-(3,5-bis(4-methylphenyl)-1H-pyrazol-1-yl)benzenesulfonamide] was run?
**A.** 13.6 µM

**Q.** For `NS(=O)(=O)c1ccc(-n2nc(-c3ccc([N+](=O)[O-])cc3)cc2-c2ccc(Cl)cc2)cc1` [Example 2e, 4-(5-(4-chlorophenyl)-3-(4-nitrophenyl)-1H-pyrazol-1-yl)benzenesulfonamide], which IC50 (Human COX II) is on record?
**A.** 0.7 µM

**Q.** And the IC50 (Human COX I)?
**A.** > 100 µM

**Q.** Which IC50 (Human COX II) does the source give for `COc1ccc(-c2cc(-c3ccc(OC)cc3)n(-c3ccc(S(N)(=O)=O)cc3)n2)cc1` [Example 2c, 4-(3,5-bis(4-methoxyphenyl)-1H-pyrazol-1-yl)benzenesulfonamide] here?
**A.** 0.5 µM

**Q.** What about the IC50 (Human COX I) of the same molecule?
**A.** 2.1 µM

**Q.** For `Cc1ccc(-c2cc(-c3ccc(Cl)cc3)n(-c3ccc(S(N)(=O)=O)cc3)n2)cc1` [Example 2d, 4-(5-(4-chlorophenyl)-3-(4-methylphenyl)-1H-pyrazol-1-yl)benzenesulfonamide], which IC50 (Human COX I) is on record?
**A.** 12.7 µM

**Q.** How did the IC50 (Human COX I) turn out when `NS(=O)(=O)c1ccc(-n2nc(-c3ccccc3)cc2-c2ccc(Cl)cc2)cc1` [Example 2b, 4-(5-(4-chlorophenyl)-3-phenyl-1H-pyrazol-1-yl)benzenesulfonamide] was run?
**A.** 19.1 µM
